Assay results: the NIST ThermoML archive (doi:10.1016/j.jct.2016.07.038)
± gives the expanded uncertainty stated by the source.

How the values were obtained:
[1] = Crystal; for Normal melting temperature: DTA
[2] = molar heat capacity at constant pressure; settings: 298.15 K; 101.33 kPa; Crystal; Small sample (50 mg) DSC
[3] = Molar enthalpy of transition or fusion; settings: Crystal; DSC

SMILES	Normal melting temperature [1] [°C]	molar heat capacity at constant pressure [2] [J/K/mol]	Molar enthalpy of transition or fusion [3] [kcal/mol]	mass density ([1]; 298.15 K, 101.33 kPa, measuring the mass and volume of a pellet of the compound) [kg/m3]
O=C1NCCO1 [2-oxazolidone]	90 ± 0.4	113.8 ± 3.5	3.89 ± 0.139	
CC(=O)N1CCOC1=O [3-acetyl-2-oxazolidinone]	69.8 ± 0.6	164.7 ± 3.5	3.67 ± 0.124	1230 ± 60
